Peptide text beside a SMILES is read from it.
Assay: Moisture absorption test (hygroscopic properties) of test carriers
Assay type: physicochemical
Design: key to % Moisture Absorption: x: Not possible to measure (because the samples deliquesced.)
Settings: for % Moisture Absorption: 25° C.; for Hygroscopicity, result in words: moisture absorption tests, comparison of carriers
Procedure: For the objective of selecting a material suitable as the carrier for a dry powder inhalation, moisture absorption tests were performed on erythritol, xylitol, lactose, D-mannitol, Amalty, glucose, Stevia, Benecoat and aspartame. […] (Tables 1, 2, and 3)
In order to ascertain that trehalose is a material having properties suitable as a carrier for dry powder inhalations, it was compared to lactose, a well-known carrier for dry powder inhalation. A test was carried out for comparing hygroscopicity. The trehalose used was the product of Asahi Kasei Kogyo KK, and Lactose 325M from the DMV Company. […] (Table 4, 5)

[1] = Table 1, Humidity 60%, 24 Hours
[2] = Table 1, Humidity 60%, 72 Hours
[3] = Table 1, Humidity 60%, 168 Hours
[4] = Table 1, Humidity 60%, 366 Hours
[5] = Table 2, Humidity 75%, 24 Hours
[6] = Table 2, Humidity 75%, 48 Hours
[7] = Table 2, Humidity 75%, 72 Hours
[8] = Table 2, Humidity 75%, 168 Hours
[9] = Table 2, Humidity 75%, 336 Hours
[10] = Table 3, Humidity 90%, 24 Hours
[11] = Table 3, Humidity 90%, 48 Hours
[12] = Table 3, Humidity 90%, 72 Hours
[13] = Table 3, Humidity 90%, 168 Hours
[14] = Table 3, Humidity 90%, 16 Hours
[15] = Table 4, Humidity 60%, 24 Hours
[16] = Table 4, Humidity 60%, 72 Hours
[17] = Table 4, Humidity 60%, 168 Hours
[18] = Table 4, Humidity 60%, 366 Hours
[19] = Table 5, Humidity 75%, 48 Hours
[20] = Table 5, Humidity 75%, 72 Hours
[21] = Table 5, Humidity 75%, 168 Hours

% Moisture Absorption [1]	% Moisture Absorption [2]	% Moisture Absorption [3]	% Moisture Absorption [4]	% Moisture Absorption [5]	% Moisture Absorption [6]	% Moisture Absorption [7]	% Moisture Absorption [8]	% Moisture Absorption [9]	% Moisture Absorption [10]	% Moisture Absorption [11]	% Moisture Absorption [12]	% Moisture Absorption [13]	% Moisture Absorption [14]	Structure (SMILES)	further results
0.000%	0.000%	0.000%	0.000%	0.008%	0.011%	0.014%	0.010%	0.012%	0.055%	0.070%	0.070%	0.070%		OC[C@@H](O)[C@@H](O)CO [Erythritol]	Hygroscopicity, result in words: least hygroscopic
				0.019%	0.019%	0.019%	0.028%		0.672%	0.806%	0.916%	1.122%	0.539%	OC[C@@H](O)[C@@H](O)[C@H](O)[C@H](O)CO [D-Mannitol]	
														OC[C@H]1O[C@H](O[C@H]2O[C@H](CO)[C@@H](O)[C@H](O)[C@H]2O)[C@H](O)[C@@H](O)[C@@H]1O [Trehalose]	% Moisture Absorption [15]: 0.000%; % Moisture Absorption [16]: 0.000%; % Moisture Absorption [17]: 0.000%; % Moisture Absorption [18]: 0.000%; % Moisture Absorption [19]: 0.008%; % Moisture Absorption [20]: 0.023%; % Moisture Absorption [21]: 0.020%; Hygroscopicity, result in words: only slightly hygroscopic
				0.478%	1.138%	1.171%	1.252%		0.971%	2.513%	3.373%	8.391%	0.775%	OC[C@@H](O)[C@@H](O[C@H]1O[C@H](CO)[C@@H](O)[C@H](O)[C@H]1O)[C@H](O)[C@@H](O)CO [Amalty]	
0.000%	0.000%	0.000%	0.000%	0.029%		0.031%	0.033%	0.031%	0.094%		0.090%	0.092%		OC[C@H]1O[C@@H](O[C@H]2[C@H](O)[C@@H](O)C(O)O[C@@H]2CO)[C@H](O)[C@@H](O)[C@H]1O (stereo partly drawn) [Lactose 325M, Lactose]	% Moisture Absorption [15]: 0.000%; % Moisture Absorption [16]: 0.000%; % Moisture Absorption [17]: 0.000%; % Moisture Absorption [18]: 0.000%; % Moisture Absorption (Table 5, Humidity 75%, 16 Hours): 0.029%; % Moisture Absorption [19]: 0.031%; % Moisture Absorption [20]: 0.033%; % Moisture Absorption [21]: 0.031%
0.000%	0.000%	0.019%	0.021%	0.087%	0.104%	0.126%	0.124%	0.126%	3.796%	17.917%	x	x		OC[C@@H](O)[C@H](O)[C@@H](O)CO [Xylitol]	
				6.539%	10.877%	10.985%	11.163%		10.741%	11.448%	11.521%	11.749%	10.476%	COC(=O)[C@H](Cc1ccccc1)NC(=O)[C@@H](N)CC(=O)O [Aspartame] (H-Asp-Phe-OMe)	
